The subject of the test is CEM cells HIV-1 protection, formazan growth assay. Kind of test: NCI AIDS Antiviral Assay. To be noted: for IC50: measured here: growth of uninfected CEM cells. The gist of the method: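 Human CEM cells, uninfected and HIV-1-infected, exposed to five drug concentrations; growth measured by soluble formazan assay and scored as percent protection from infection, with protecting compounds retested.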

Calls of active or inactive are those of the source.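 Rule for the calls: active = compounds giving half or more protection of infected cells from virus-caused growth loss, again on retest; inactive = the rest.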

On to `Cc1cc(C(=C2C=CC(=Nc3ccc(S(=O)(=O)O)cc3)C=C2)c2ccc(Nc3ccc(S(=O)(=O)O)cc3)cc2)cc(S(=O)(=O)O)c1N`, for which the concentration for a half-maximal effect (EC50) – broadly, the concentration giving half of the maximal effect – is 30.2 µM and the IC50 (usually the concentration that inhibits the measured activity by half) stood at 49 µM.

With `O=C1CC(CC(O)C(O)CO)CC(=O)N1` (centres undefined), the EC50 was above 200 µM and the IC50 is above 200 µM.

Take `CCOC(CCCN1CCC2(CC1)C(=O)N(C)CN2c1ccccc1)(OCC)c1ccc(F)cc1`: the EC50 is above 200 µM and the IC50 turned out to be 15.1 µM.

In the case of `NC(=O)/C(=N\NC(=O)C[n+]1ccccc1)C1NC(=O)NC1=O` (centres undefined), the EC50 was above 148 µM and the IC50 was above 148 µM.

`OCCOc1ccc(-c2cc(-c3ccccn3)nc(-c3ccccn3)c2)cc1`: the EC50 is above 3.72 µM and the IC50 was determined as 0.646 µM.

As to `CCOC(=O)NC(Nc1ncn(C(NC(=O)OCC)(C(F)(F)F)C(F)(F)F)n1)(C(F)(F)F)C(F)(F)F`, the EC50 is above 200 µM and the IC50 is above 200 µM.

In the case of `O=C(c1ccccc1)C(c1ccccc1)C1(O)C(=O)Nc2ccc([N+](=O)[O-])cc21` (centres undefined), the EC50 was above 25.7 µM and the IC50 is above 25.7 µM.

On to `O=C(/C=C\c1cccc2ccccc12)c1cccs1`, for which the EC50 was above 3.98 µM and the IC50 was above 3.98 µM.

As for `COCC1OCCN1C` (centres undefined), the EC50 is above 200 µM and the IC50 is above 200 µM.

In the case of `CN1C(=O)CC2(C)c3cc(O)ccc3N(C)C12` (centres undefined), the result was inactive.

For the molecule `N#C/C(=C\N1CCNC1=S)C(=O)c1ccc2ccccc2c1`, the EC50 was above 200 µM and the IC50 is 151 µM.

On to `C/C=C/C#CC#CC(O)C(/C=C/CCCO)OC1OC(COC2OC(CO)C(O)C(O)C2O)C(O)C(O)C1O` (centres undefined), for which the EC50 was above 447 µM and the IC50 was above 447 µM.

With `N#CCCC(CC#N)S(=O)(=O)O` (centres undefined), the EC50 is above 200 µM and the IC50 was above 200 µM.

On to `CN(NC(=O)CCCl)C1=NCCN1`, for which the EC50 was above 200 µM and the half-maximal inhibitory concentration (IC50) is above 200 µM.

As to `CCOc1cc2c(cc1O)C(=O)C[C@@H]1[C@@H]2CC[C@]2(C)[C@@H](O)CC[C@@H]12`, the EC50 was above 2 µM and the IC50 turned out to be 0.0794 µM.

Regarding `CC(=O)OC1N(C(C)=O)C(SC23CC4CC(CC(C4)C2)C3)C(C)=CC1(C)OC(C)=O` (centres undefined), the EC50 is above 200 µM and the IC50 stood at 126 µM.

As for `CCN(CC)CCn1c2cc3c(cc2c(=O)c2cccnc21)OCCO3`, the EC50 was above 200 µM and the IC50 stood at 6.61 µM.

For `COc1c(-c2ccc3c(c2)OCO3)oc2cc(O)cc(O)c2c1=O`, the EC50 was above 200 µM and the IC50 was found to be 115 µM.

`C=CCn1c2c(c3ccccc3c1=O)C(=O)c1ccccc1-2`: the EC50 is above 91.2 µM and the IC50 was above 91.2 µM.

As to `CC1(C)Oc2ccc3ccc(=O)oc3c2[C@@H](OC(=O)C23CCC(C)(C(=O)O2)C3(C)C)[C@H]1OC(=O)C12CCC(C)(C(=O)O1)C2(C)C` (some centres undefined), the EC50 is 2.95 µM and the IC50 turned out to be 14.1 µM.

Regarding `CCOC(=O)C(=CNC(=S)c1ccncc1)C(=O)OCC`, the EC50 is above 200 µM and the IC50 was above 200 µM.

For `N#CC1(C#N)C2C=CC(c3coc4cccc2c34)C1(C#N)C#N` (centres undefined), the result was inactive.

As to `O=c1c(-c2ccc(O)cc2)coc2cc(OC3OC(CO)C(O)C(O)C3O)cc(O)c12` (centres undefined), the EC50 was above 200 µM and the IC50 is above 200 µM.

For `NC(=S)N/N=C/c1cn(CCCl)c2ccccc12`, the EC50 is above 25.7 µM and the concentration for half-maximal inhibition (IC50) was 15.8 µM.

For the molecule `COc1cc([C@@H]2c3cc4c(c(O)c3C[C@H]3COC(=O)[C@@H]32)OCO4)cc(OC)c1OC`, the EC50 was above 0.02 µM and the IC50 was 0.00309 µM.

On to `CC(=O)Nc1ccccc1S(=O)c1ccccc1` (centres undefined), for which the EC50 was above 229 µM and the IC50 was above 229 µM.

With `CSc1nc(Br)nc2ncn(C3CC(Oc4ccc(C)cc4)C(COc4ccc(C)cc4)O3)c12` (centres undefined), the EC50 was above 200 µM and the IC50 was 44.7 µM.

Consider `O=C1OS(=O)(=O)c2ccccc21`, for which the EC50 is above 200 µM and the half-maximal inhibitory concentration (IC50) is above 200 µM.

The values above are taken from PubChem BioAssay AID179 (DTP/NCI, 2004).
